In ChEMBL document CHEMBL5338729, “E3 Ligases Meet Their Match: Fragment-Based Approaches to Discover New E3 Ligands and to Unravel E3 Biology” (J Med Chem, 2023):
pIC50, pKd, pKi: −log10 of the molar value.

What was measured:
[1] = molecular target: Protein cereblon (Homo sapiens, UniProt Q96SW2); experiment: Binding affinity to CRBN (unknown origin) assessed as inhibition constant by FRET assay
[2] = molecular target: T1, E3 ubiquitin-protein ligase RNF4 (Homo sapiens, UniProt P78317); experiment: Inhibition of human recombinant RNF4 incubated for 30 mins by SDS-PAGE based densitometry
T1 sequence (P78317 whole entry): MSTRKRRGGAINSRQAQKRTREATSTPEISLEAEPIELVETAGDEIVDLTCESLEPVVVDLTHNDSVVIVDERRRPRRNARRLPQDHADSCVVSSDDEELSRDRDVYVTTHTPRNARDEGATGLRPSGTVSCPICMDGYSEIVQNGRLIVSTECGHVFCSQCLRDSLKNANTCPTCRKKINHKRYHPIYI

[3] = Binding affinity to RING1B-BMI1 (unknown origin); set-up: species or system Homo sapiens
[4] = molecular target: von Hippel-Lindau disease tumor suppressor (Homo sapiens, UniProt P40337); experiment: Binding affinity to VHL (unknown origin) assessed as dissociation constant by isothermal titration calorimetry assay
[5] = Inhibition of RING1B-BMI1 (unknown origin); set-up: species or system Homo sapiens
[6] = molecular target: T2, E3 ubiquitin-protein ligase RNF31 (Homo sapiens, UniProt Q96EP0); experiment: Binding affinity to HOIP (unknown origin) assessed as dissociation constant
T2 sequence (Q96EP0 whole entry): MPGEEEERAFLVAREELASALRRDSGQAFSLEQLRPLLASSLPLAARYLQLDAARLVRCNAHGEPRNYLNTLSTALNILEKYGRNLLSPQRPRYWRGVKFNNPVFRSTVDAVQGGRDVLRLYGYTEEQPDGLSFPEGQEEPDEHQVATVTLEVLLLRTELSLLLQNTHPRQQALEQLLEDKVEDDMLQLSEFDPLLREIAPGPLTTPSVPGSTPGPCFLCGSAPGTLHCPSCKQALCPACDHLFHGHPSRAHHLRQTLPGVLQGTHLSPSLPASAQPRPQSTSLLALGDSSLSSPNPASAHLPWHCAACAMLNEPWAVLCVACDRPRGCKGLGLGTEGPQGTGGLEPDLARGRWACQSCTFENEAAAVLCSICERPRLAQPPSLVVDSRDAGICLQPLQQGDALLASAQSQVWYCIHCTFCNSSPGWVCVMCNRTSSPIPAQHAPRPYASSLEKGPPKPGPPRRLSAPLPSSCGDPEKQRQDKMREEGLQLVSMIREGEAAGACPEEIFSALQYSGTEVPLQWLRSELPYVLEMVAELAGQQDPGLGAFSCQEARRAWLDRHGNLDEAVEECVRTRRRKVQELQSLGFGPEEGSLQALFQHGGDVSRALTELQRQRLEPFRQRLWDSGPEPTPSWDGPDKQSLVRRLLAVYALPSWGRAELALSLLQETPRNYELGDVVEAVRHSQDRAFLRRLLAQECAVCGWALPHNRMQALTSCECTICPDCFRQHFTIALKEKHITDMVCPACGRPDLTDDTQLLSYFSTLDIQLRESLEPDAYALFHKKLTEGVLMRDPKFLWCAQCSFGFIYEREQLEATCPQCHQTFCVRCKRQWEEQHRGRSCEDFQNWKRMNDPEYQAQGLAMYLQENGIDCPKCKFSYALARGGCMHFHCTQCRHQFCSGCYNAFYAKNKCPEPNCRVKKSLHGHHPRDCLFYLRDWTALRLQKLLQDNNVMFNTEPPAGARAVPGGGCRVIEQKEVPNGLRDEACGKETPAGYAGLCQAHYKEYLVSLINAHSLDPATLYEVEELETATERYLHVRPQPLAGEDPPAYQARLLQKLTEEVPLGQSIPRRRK

Chain of Protein cereblon (Q96SW2 whole entry): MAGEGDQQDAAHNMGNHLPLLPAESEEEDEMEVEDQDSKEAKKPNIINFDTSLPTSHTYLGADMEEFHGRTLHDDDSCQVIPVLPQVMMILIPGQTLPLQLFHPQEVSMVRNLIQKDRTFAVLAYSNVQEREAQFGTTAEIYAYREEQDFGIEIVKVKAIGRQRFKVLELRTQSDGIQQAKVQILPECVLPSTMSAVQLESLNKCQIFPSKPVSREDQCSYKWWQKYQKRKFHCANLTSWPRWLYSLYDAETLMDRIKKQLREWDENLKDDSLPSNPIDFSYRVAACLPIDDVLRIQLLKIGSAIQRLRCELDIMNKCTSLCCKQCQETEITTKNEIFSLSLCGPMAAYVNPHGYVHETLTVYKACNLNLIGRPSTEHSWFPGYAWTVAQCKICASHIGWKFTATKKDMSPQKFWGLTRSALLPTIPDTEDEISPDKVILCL
Chain of von Hippel-Lindau disease tumor suppressor (P40337 whole entry): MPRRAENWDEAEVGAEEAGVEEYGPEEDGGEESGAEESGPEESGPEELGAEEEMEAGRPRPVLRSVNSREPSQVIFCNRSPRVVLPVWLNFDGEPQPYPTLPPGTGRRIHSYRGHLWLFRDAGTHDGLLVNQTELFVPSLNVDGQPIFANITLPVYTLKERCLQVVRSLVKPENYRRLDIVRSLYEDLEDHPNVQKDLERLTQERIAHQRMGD

With `O=C1CCCCN1` as the molecule, how does the pKi [1] read?
Its pKi is 3.84.

With `O=C1CCNC(=O)N1` as the molecule, how does the pKi [1] read?
Its pKi is 4.06.

With `O=C(CCl)Nc1ccc(Oc2ccccc2)cc1` as the molecule, how does the pIC50 [2] read?
Its pIC50 is 5.00.

With `O=C1CCN1` as the molecule, how does the pKi [1] read?
The pKi was 4.11.

With `O=C(O)c1ccc(-c2ccccc2)s1` as the molecule, how does the pKd [3] read?
Its pKd is about 2.15.

With `O=C1CCSc2ccc(Cl)cc21` as the molecule, how does the pKd [4] read?
The pKd was 2.17.

With `OCc1ccc(-n2cccc2)cc1` as the molecule, how does the pKd [4] read?
The pKd was 2.30.

With `CC(C)c1c(-c2cccc3[nH]ccc23)[nH]c(C(=O)O)c1-c1c(Cl)ccc2[nH]ccc12` as the molecule, how does the pKd [3] read?
Its pKd is 5.55.

And the pIC50 [5]?
Its pIC50 is 5.80.

With `CCc1c(-c2cccc3[nH]ccc23)[nH]c(C(=O)O)c1-c1ccccc1Cl` as the molecule, how does the pKd [3] read?
Its pKd is 4.94.

What about the pIC50 [5] of the same molecule?
Its pIC50 is 4.92.

With `CC(=O)NC(N)=O` as the molecule, how does the pKi [1] read?
The pKi was 3.28.

With `COC(=O)/C=C/CNC(=O)c1cc2c([nH]c1=O)CCC2` as the molecule, how does the pKd [6] read?
The pKd was under 3.40.

With `O=C1CNC(=O)N1` [HYDANTOIN] as the molecule, how does the pKi [1] read?
Its pKi is 4.37.

With `O=C1CCC(=O)N1` [SUCCINIMIDE] as the molecule, how does the pKi [1] read?
Its pKi is 5.37.

With `O=c1cc[nH]c(=O)[nH]1` [URACIL] as the molecule, how does the pKi [1] read?
The pKi was 4.46.
